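Cultured in 96-well plates, cells were exposed to test compound for 48 hours across five concentrations. Here, GI50 denotes the concentration required for 50% inhibition of growth. The concentration for full growth arrest is given as TGI.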
What was measured:
Assay in all cases: inhibition of tumour cell growth, NCI panel, 48 h
UACC-257 melanoma = system: UACC-257 melanoma
EKVX NSCLC = system: EKVX NSCLC
UACC-62 melanoma = system: UACC-62 melanoma
MOLT-4 leukemia = system: MOLT-4 leukemia
BT-549 breast = system: BT-549 breast
SK-OV-3 ovarian = system: SK-OV-3 ovarian
SNB-75 CNS = system: SNB-75 CNS
DU-145 prostate = system: DU-145 prostate
K-562 leukemia = system: K-562 leukemia
CCRF-CEM leukemia = system: CCRF-CEM leukemia
MDA-MB-435 = system: MDA-MB-435
MALME-3M melanoma = system: MALME-3M melanoma
CAKI-1 renal = system: CAKI-1 renal
SF-539 CNS = system: SF-539 CNS
HCT-15 colon = system: HCT-15 colon
HCT-116 colon = system: HCT-116 colon
NCI-H23 lung = system: NCI-H23 lung
SW-620 colon = system: SW-620 colon
UO-31 renal = system: UO-31 renal
SR leukemia = system: SR leukemia
LOX IMVI melanoma = system: LOX IMVI melanoma
A549 NSCLC = system: A549 NSCLC
SN12C renal = system: SN12C renal
MCF7 breast = system: MCF7 breast
IGROV1 ovarian = system: IGROV1 ovarian
OVCAR-3 ovarian = system: OVCAR-3 ovarian
RXF 393 renal = system: RXF 393 renal
HL-60(TB) leukemia = system: HL-60(TB) leukemia
OVCAR-8 ovarian = system: OVCAR-8 ovarian

Cc1nc2cc(-c3nn(C(C)C)c4ncnc(N)c34)ccc2o1
GI50 (UACC-257 melanoma): 11.1 nM | TGI (UACC-257 melanoma): 112 nM | GI50 (EKVX NSCLC): 14.1 nM | TGI (EKVX NSCLC): 286 nM | GI50 (UACC-62 melanoma): 3.93 nM | TGI (UACC-62 melanoma): 44 nM | GI50 (MOLT-4 leukemia): 20.6 nM | TGI (MOLT-4 leukemia): > 3500 nM | GI50 (BT-549 breast): 3.51 nM | TGI (BT-549 breast): 61 nM | GI50 (SK-OV-3 ovarian): 4.65 nM | TGI (SK-OV-3 ovarian): 44.6 nM | GI50 (SNB-75 CNS): 3.09 nM | TGI (SNB-75 CNS): 39.1 nM | GI50 (DU-145 prostate): 19.7 nM | TGI (DU-145 prostate): > 10000 nM | GI50 (K-562 leukemia): 28.8 nM | TGI (K-562 leukemia): > 10000 nM | GI50 (CCRF-CEM leukemia): 27 nM | TGI (CCRF-CEM leukemia): > 10000 nM | GI50 (MDA-MB-435): 8.54 nM | TGI (MDA-MB-435): 98.2 nM | GI50 (MALME-3M melanoma): 3.47 nM | TGI (MALME-3M melanoma): 78.7 nM | GI50 (CAKI-1 renal): 4.9 nM | TGI (CAKI-1 renal): 84.4 nM | GI50 (SF-539 CNS): 22.7 nM | TGI (SF-539 CNS): 169 nM | GI50 (HCT-15 colon): 12.6 nM | TGI (HCT-15 colon): > 6080 nM | GI50 (HCT-116 colon): 35 nM | TGI (HCT-116 colon): > 10000 nM | GI50 (NCI-H23 lung): 41.5 nM | TGI (NCI-H23 lung): > 7000 nM | GI50 (SW-620 colon): 36.6 nM | TGI (SW-620 colon): > 10000 nM | GI50 (UO-31 renal): 2.11 nM | TGI (UO-31 renal): 61.1 nM | GI50 (SR leukemia): 16.8 nM | TGI (SR leukemia): 8070 nM | GI50 (LOX IMVI melanoma): 14.1 nM | TGI (LOX IMVI melanoma): 660 nM | GI50 (A549 NSCLC): 12.7 nM | TGI (A549 NSCLC): 310 nM | GI50 (SN12C renal): 9.83 nM | TGI (SN12C renal): > 10000 nM | GI50 (MCF7 breast): 3.79 nM | TGI (MCF7 breast): > 10000 nM | GI50 (IGROV1 ovarian): 3.41 nM | TGI (IGROV1 ovarian): 55.9 nM | GI50 (OVCAR-3 ovarian): 12.5 nM | TGI (OVCAR-3 ovarian): 627 nM | GI50 (RXF 393 renal): 6.62 nM | TGI (RXF 393 renal): 104 nM | GI50 (HL-60(TB) leukemia): 68 nM | TGI (HL-60(TB) leukemia): > 10000 nM | GI50 (OVCAR-8 ovarian): 19.8 nM | TGI (OVCAR-8 ovarian): 431 nM

From PubChem BioAssay (NCI)
